Like-named read-outs stand apart in the source and are kept apart here.
What was measured:
FGFR4 (h) = FGFR4 (h) (Homo sapiens, UniProt P22455); assay: FGFR4 (enzymatic assay), TR-FRET; format: biochemical; conditions: FGFR 4 pIC50, enzymatic assay
[1] = tested on: Ba/F3-FGFR3-transfected cells; assay: Ba/F3-FGFR3 (plus IL3) cellular proliferation assay, counterscreen with 10 ng/ml murine IL3; format: cell-based; conditions: plus IL3 (10 ng/ml murine IL3, counterscreen); read-out: BAF3-FGFR3 (PLUS IL3) pIC50 (converted)
Procedure, shortened: (§1)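 Read-out: resazurin-based Alamar Blue fluorescence (ex 540 nm, em 590 nm) after a 4 h dye incubation. FGFR3-transfected Ba/F3 cells, 20000 per well, are exposed to compound for 24 h at 37° C in RPMI-1640/10% FBS. Plus-IL3 counterscreen adds 10 ng/ml murine IL3.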

[2] = target: T1, Ba/F3-FGFR3-transfected cells (Homo sapiens, UniProt P22607); assay: Ba/F3-FGFR3 (minus IL3) cellular proliferation assay, Alamar Blue; format: cell-based
T1 construct: BAF3-FGFR3 (MIN IL3) pIC50; other: minus IL3
T1 sequence (P22607 whole entry, change not shown): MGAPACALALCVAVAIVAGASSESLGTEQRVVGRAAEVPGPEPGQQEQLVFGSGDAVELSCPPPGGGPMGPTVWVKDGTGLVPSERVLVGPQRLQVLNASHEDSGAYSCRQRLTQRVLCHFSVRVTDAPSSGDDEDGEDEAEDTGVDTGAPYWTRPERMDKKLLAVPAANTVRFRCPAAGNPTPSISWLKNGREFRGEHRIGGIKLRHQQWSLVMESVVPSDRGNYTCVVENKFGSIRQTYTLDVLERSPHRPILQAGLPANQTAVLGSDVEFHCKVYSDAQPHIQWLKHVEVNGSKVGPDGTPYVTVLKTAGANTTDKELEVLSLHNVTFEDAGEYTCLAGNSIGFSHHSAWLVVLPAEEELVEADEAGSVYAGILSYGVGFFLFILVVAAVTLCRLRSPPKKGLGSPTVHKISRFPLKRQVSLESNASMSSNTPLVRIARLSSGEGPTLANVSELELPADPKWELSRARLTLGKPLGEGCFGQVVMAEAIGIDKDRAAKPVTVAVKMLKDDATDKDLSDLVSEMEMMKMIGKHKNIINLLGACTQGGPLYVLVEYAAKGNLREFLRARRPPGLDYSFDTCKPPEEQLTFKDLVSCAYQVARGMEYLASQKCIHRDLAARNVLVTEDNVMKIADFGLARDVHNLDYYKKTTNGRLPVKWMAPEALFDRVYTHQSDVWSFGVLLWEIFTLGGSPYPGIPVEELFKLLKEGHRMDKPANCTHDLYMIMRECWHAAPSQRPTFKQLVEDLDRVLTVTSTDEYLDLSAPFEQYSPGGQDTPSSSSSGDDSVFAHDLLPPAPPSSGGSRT
Procedure, shortened: as §1

[3] = tested on: Ba/F3-KDR-transfected cells; assay: Ba/F3-KDR (plus IL3) cellular proliferation assay, counterscreen with 10 ng/ml murine IL3; format: cell-based; conditions: plus IL3 (10 ng/ml murine IL3, counterscreen); read-out: BAF3-KDR (PLUS IL3) pIC50 (converted)
Procedure, shortened: (§2)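 Cells grown with test compound at 37° C and 5% CO2 for 24 hours were given a resazurin/ferricyanide/ferrocyanide reagent for 4 hours before fluorescence (540/590 nm) was recorded.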

[4] = target: T2, Ba/F3-FGFR1-transfected cells (Homo sapiens, UniProt P11362); assay: Ba/F3-FGFR1 (minus IL3) cellular proliferation assay, Alamar Blue; format: cell-based
T2 construct: BAF3-FGFR1 (MIN IL3) pIC50; other: minus IL3
T2 sequence (P11362 whole entry, change not shown): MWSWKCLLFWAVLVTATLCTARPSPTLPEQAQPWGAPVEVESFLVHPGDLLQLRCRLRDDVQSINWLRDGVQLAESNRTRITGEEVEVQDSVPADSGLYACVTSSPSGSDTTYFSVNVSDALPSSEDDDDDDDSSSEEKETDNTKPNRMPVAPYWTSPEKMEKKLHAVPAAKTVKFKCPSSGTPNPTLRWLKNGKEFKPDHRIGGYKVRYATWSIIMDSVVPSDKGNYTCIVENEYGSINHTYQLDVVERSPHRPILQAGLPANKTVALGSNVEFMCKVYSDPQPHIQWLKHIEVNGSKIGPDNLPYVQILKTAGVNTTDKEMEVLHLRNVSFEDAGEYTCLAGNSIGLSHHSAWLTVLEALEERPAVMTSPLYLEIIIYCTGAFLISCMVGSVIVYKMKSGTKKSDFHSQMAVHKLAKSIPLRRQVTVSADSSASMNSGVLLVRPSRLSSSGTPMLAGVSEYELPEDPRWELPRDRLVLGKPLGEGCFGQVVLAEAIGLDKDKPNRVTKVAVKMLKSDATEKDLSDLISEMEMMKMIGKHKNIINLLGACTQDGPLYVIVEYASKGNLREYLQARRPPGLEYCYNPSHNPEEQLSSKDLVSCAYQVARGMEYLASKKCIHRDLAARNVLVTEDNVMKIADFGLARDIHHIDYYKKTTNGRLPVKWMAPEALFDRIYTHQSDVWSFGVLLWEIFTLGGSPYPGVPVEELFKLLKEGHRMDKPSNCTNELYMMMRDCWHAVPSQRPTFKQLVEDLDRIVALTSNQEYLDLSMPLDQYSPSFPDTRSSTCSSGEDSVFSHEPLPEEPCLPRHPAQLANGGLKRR
Procedure, shortened: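 Read-out: resazurin reduction, fluorescence ex 540 nm/em 590 nm after 4 h Alamar Blue at 37 °C. Before that, FGFR1-transfected Ba/F3 cells (20000/well) sat with compound for 24 h in RPMI-1640/10% FBS/2 mM L-Gln.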

FGFR2 (h) = FGFR2 (h) (Homo sapiens, UniProt P21802); assay: FGFR2 (enzymatic assay), TR-FRET; format: biochemical; conditions: enzymatic assay, read-out: FGFR 2 pIC50 (converted)
FGFR2 (h), sequence (P21802 22-821): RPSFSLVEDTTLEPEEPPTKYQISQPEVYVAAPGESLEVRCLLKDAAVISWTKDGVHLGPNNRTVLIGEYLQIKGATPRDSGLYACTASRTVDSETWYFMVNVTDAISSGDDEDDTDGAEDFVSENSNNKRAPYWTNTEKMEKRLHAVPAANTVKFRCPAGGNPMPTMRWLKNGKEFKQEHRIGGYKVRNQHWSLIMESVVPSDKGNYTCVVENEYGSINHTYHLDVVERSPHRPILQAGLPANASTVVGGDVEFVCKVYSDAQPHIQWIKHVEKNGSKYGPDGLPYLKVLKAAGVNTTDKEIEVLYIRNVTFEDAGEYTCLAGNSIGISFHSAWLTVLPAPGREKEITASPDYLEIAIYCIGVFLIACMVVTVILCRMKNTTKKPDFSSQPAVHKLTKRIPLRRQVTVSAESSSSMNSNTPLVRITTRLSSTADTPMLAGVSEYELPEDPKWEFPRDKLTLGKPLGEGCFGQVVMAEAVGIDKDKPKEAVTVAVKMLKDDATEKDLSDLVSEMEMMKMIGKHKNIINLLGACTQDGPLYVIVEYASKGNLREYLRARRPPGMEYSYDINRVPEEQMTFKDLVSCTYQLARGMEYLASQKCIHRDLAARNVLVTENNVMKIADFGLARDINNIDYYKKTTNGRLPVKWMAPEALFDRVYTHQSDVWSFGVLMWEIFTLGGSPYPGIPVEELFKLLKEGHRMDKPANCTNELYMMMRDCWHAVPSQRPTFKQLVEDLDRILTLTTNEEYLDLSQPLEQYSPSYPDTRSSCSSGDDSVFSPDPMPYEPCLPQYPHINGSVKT
Procedure, shortened: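 hFGFR2 150 ng/ml; Btn-Flt3 500 nM; ATP 0.4 μM; 50 mM HEPES pH 7.5, 6 mM MnCl2, 1 mM DTT, 0.1 mM Na3VO4, 0.01% Triton-X-100; 1% DMSO final.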

[5] = target: T3, Ba/F3-KDR-transfected cells (Homo sapiens, UniProt P35968); assay: Ba/F3-KDR (minus IL3) cellular proliferation assay, Alamar Blue; format: cell-based
T3 construct: BAF3-KDR (MIN IL3) pIC50; other: minus IL3
T3 sequence (P35968 whole entry, change not shown): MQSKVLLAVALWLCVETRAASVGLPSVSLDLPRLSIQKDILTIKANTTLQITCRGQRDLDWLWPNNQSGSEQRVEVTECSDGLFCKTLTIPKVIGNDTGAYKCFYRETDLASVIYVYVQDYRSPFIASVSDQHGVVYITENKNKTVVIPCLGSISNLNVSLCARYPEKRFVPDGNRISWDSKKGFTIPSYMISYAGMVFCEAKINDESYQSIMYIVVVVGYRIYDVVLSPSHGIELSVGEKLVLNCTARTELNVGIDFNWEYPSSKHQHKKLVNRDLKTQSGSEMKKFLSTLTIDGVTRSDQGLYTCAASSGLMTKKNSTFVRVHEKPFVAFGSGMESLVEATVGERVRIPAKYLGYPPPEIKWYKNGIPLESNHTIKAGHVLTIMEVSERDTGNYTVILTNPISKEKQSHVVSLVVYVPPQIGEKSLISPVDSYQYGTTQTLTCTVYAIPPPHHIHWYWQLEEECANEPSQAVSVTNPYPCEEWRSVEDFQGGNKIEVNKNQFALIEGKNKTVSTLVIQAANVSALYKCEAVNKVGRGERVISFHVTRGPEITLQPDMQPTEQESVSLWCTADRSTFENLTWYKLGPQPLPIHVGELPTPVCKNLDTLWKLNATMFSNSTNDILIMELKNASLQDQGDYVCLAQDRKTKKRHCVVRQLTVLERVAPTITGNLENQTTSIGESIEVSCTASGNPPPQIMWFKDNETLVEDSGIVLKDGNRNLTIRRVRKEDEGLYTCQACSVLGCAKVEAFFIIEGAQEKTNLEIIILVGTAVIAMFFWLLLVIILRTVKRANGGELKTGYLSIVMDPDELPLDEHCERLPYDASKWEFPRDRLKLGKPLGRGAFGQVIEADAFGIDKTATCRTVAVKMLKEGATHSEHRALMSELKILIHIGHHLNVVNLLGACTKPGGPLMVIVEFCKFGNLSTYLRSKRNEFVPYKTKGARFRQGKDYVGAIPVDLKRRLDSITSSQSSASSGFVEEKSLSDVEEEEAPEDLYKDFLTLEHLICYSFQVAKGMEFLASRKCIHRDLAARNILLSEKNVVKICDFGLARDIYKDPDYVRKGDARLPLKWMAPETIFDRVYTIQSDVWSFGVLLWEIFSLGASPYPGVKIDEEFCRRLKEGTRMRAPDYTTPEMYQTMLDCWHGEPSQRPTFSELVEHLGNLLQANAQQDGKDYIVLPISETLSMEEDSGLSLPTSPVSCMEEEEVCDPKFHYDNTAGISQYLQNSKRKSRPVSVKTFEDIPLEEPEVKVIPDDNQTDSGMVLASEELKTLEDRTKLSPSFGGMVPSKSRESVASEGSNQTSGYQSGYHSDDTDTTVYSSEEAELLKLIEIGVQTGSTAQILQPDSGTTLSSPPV
Procedure, shortened: as §2

[6] = average values if tested multiple times

FGFR4 (h), sequence (P22455 22-802): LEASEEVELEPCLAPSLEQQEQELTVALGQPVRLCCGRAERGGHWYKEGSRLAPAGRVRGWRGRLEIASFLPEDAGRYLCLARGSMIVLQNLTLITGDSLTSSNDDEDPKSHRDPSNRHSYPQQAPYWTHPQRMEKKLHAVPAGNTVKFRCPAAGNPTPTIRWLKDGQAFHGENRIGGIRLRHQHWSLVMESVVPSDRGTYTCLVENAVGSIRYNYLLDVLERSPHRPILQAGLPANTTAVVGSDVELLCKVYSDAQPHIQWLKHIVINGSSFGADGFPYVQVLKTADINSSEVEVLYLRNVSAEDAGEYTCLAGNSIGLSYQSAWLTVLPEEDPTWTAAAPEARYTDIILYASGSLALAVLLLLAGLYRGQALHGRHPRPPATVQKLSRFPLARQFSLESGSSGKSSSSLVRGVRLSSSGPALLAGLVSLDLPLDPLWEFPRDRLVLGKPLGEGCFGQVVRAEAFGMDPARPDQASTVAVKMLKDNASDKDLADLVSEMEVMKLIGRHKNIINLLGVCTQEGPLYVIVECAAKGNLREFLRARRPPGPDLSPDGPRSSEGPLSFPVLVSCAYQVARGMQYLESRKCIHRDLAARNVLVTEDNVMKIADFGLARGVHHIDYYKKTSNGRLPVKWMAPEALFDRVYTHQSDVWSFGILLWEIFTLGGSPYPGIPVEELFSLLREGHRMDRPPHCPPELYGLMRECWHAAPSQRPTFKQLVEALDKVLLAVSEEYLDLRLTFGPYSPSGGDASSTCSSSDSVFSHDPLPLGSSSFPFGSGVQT

| SMILES | IC50 (FGFR4 (h); [6]) [nM] | IC50 [1] [nM] | BAF3-FGFR3 (MIN IL3) pIC50 [2] | IC50 [3] [nM] | BAF3-FGFR1 (MIN IL3) pIC50 [4] | IC50 (FGFR2 (h); [6]) [nM] | BAF3-KDR (MIN IL3) pIC50 [5] | IC50 (FGFR4 (h)) [nM] | IC50 (FGFR2 (h)) [nM] |
| --- | --- | --- | --- | --- | --- | --- | --- | --- | --- |
| COCC(O)CN(c1ccc2ncc(-c3cnn(C)c3)nc2n1)c1cc(OC)cc(OC)c1F (single isomer, unassigned) [Compound 58] | 2.14 | > 10000 | 7.43 | > 10000 | 7.51 | 1.95 | 5.97 |  |  |
| COc1cc(OC)c(F)c(N(Cc2cc[nH]n2)c2ccc3ncc(-c4cnn(C)c4)nc3n2)c1 [Compound 118] | 0.776 | > 10000 | ~8.04 | > 10000 | 8.00 | 1.32 | 6.60 |  |  |
| CNCCN(c1ccc2ncc(-c3cnn(C)c3)nc2n1)c1c(F)ccc(OC)c1Cl [Compound 69] | 38.9 | > 10000 | 6.76 | > 10000 | 7.06 | 4.27 | 5.13 |  |  |
| COc1cc(OC)c(F)c(N(CCO)c2ccc3ncc(-c4cnn(C)c4)nc3n2)c1F [Compound 20] | 3.98 | > 10000 | 8.15 | > 10000 | 8.35 | 126 | 6.53 |  |  |
| COc1cc(OC)c(F)c(N(Cc2nc[nH]n2)c2ccc3ncc(-c4cnn(C)c4)nc3n2)c1F [Compound 85] | 2.24 | > 10000 | 8.14 | > 10000 | 8.28 | 2.04 | 6.43 |  |  |
| CNCCn1/c(=N/c2cc(OC)cc(OC)c2F)ccc2ncc(-c3cnn(C)c3)nc21 [Compound 38] | 17.8 | > 10000 | 6.27 | > 10000 | 6.92 | 4.57 | 5.13 |  |  |
| COc1cc(OC)c(F)c(N(CCO)c2ccc3ncc(-c4cnn(C)c4)nc3n2)c1 [Compound 40] | 1.82 | > 10000 | 7.84 | > 10000 | 7.80 | 1.48 | 6.00 |  |  |
| COc1cc(/N=c2\ccc3ncc(-c4cnn(C)c4)nc3n2CC2CCC(=O)N2)c(F)c(OC)c1 (centres unmarked) [Compound 45] | 3.98 | > 10000 | 7.07 | > 10000 | 7.14 | 1.91 | ~5.96 |  |  |
| COc1cc(OC)c(F)c(N(Cc2cn(S(=O)(=O)N(C)C)cn2)c2ccc3ncc(-c4cnn(C)c4)nc3n2)c1 [Compound 36] | 1.48 | > 10000 | ~7.57 | > 10000 | 7.72 | 3.98 | 5.67 |  |  |
| COc1cc(OC)c(F)c(N(Cc2ncc[nH]2)c2ccc3ncc(-c4cnn(Cc5ncc[nH]5)c4)nc3n2)c1 [Compound 100] | 1.29 | > 10000 | 7.56 | > 10000 | 8.02 | 2.14 | 5.41 |  |  |
| COc1cc(OC)c(F)c(N(CCN)c2ccc3ncc(-c4cnn(C)c4)nc3n2)c1F [Compound 67] | 2.75 | > 10000 | 7.83 | > 10000 | 8.20 | 1.78 | 6.59 |  |  |
| COc1cc(OC)c(F)c(N(Cc2nc[nH]n2)c2ccc3ncc(-c4cnn(C)c4)nc3n2)c1 [Compound 86] | 1.12 | > 10000 | ~7.90 | > 10000 | 7.74 | 1.41 | 6.24 |  |  |
| COc1cc(OC)c(F)c(N(CCCO)c2ccc3ncc(-c4cnn(C)c4)nc3n2)c1F (single isomer, unassigned) [Compound 16] | 25.1 | > 10000 | 7.8 | > 10000 | 8.0 | 15.8 | 6.2 |  |  |
| COCC(O)CN(c1cc(OC)cc(OC)c1)c1ccc2ncc(-c3cnn(C)c3)nc2n1 (centres unmarked) [Compound 7] | 6.31 | > 10000 | 7.1 | > 10000 | 7.0 | 3.98 | 5.1 |  |  |
| COCC(O)Cn1c(=Nc2c(F)c(OC)cc(OC)c2F)ccc2ncc(-c3cnn(C)c3)nc21 (centres unmarked) [Compound 51] | 0.525 | > 10000 | ~8.03 | > 10000 | 8.48 | 1.29 | 5.93 |  |  |
| COc1cc(OC)c(F)c(N(Cc2nc(C)c[nH]2)c2ccc3ncc(-c4cnn(C)c4)nc3n2)c1 [Compound 135] |  | > 10000 | 8.25 | > 10000 | 8.82 |  | 6.64 | 1.26 | 1.78 |
| CNCCN(c1ccc2ncc(-c3cn[nH]c3)nc2n1)c1c(F)c(OC)cc(OC)c1F [Compound 106] | 4.68 | > 10000 | ~7.12 | > 10000 | 7.86 | 2.14 | 5.59 |  |  |

— patent US9309242B2, “Substituted pyrido[2,3-b]pyrazines as FGFR kinase inhibitors” (priority 2011, dated 2016)
